In US20220146526A1, “METHOD FOR EVALUATING SAMPLE, ANALYSIS METHOD, METHOD FOR DETECTING DEGRADED SAMPLE, MARKER FOR DETECTING DEGRADED BLOOD PLASMA SAMPLE, AND MARKER FOR DETECTING DEGRADED SERUM SAMPLE” (SHIMADZU CORPORATION, priority 2019, published 2022):

Experiments:
Format in all cases: physicochemical, human
[1] = GC/MS of blood plasma sample: time from blood collection to centrifugation (Table A); conditions: for Rate of increase or decrease: detection intensity relative to 1 at 15 minutes; for Rate of increase or decrease / Increase or decrease: blood collection to centrifugation; for Increase or decrease: detection intensity, after 4 hours vs 15 minutes
Method: (§1) At room temperature, 5 mL of blood from a healthy subject was taken into a blood-collecting vessel containing EDTA, and the blood-collecting vessel was inverted for mixing, then cooled, and allowed to stand at 4° C. Here, in order to investigate how the detection intensity of molecules contained in the sample was affected in a case where the time to cooling was set to 5 minutes or more as compared to that in a case where the time to cooling was set to 1 minute or less, preparations were performed under both the former condition and the latter condition. After standing, the blood sample was subjected to centrifugation under a condition of 4° C., 3000 rpm, and 15 minutes. […] After centrifugation, the blood-collecting vessel was left to stand at room temperature for 30 minutes, and the blood plasma was isolated during this 30 minutes. The obtained blood plasma sample was frozen and stored. Here, in order to investigate how the detection intensity of molecules contained in the sample was affected in cases where freezing and thawing was performed 4 times, 6 times, and 10 times after freezing as compared to that in a case where freezing and thawing was performed 2 times after freezing, freezing and thawing was performed under the respective conditions of 2, 4, 6, and 10 times.
(§2) Frozen blood plasma samples and serum samples were subjected to GC/MS or LC/MS. In GC/MS, the blood plasma samples and serum samples were subjected to methoxymation and trimethylsilylation and then introduced to GC-MS.
(§3) GC/MS was conducted using GCMS·TQ8040 (Shimadzu Corporation) that was a GC·MS equipped with AOC·20i (Shimadzu Corporation) as an autosampler.
(§4) Column: BPX5 (inner diameter of 0.25 mm, length of 30 m, and film thickness of 0.25 μm) (SGE)
(§5) Column temperature: maintained at 60° C. for 2 minutes, then raised at 15° C./min, and maintained at 330° C. for 3 minutes.
(§6) Inlet temperature: 250° C.
(§7) Carrier gas control mode: constant linear velocity of 39.0 cm/sec
(§8) Sample introduction method: split (split ratio of 30:1) Injection volume: 1 μL
(§9) Ionization method: electron ionization
(§10) Ionization current: 60 μA
(§11) Interface temperature: 280° C.
(§12) Ion source temperature: 200° C.
(§13) Mode: multiple reaction monitoring (MRM)
The rate of increase or decrease in Table A is the value of detection intensity relative to 1 that is the detection intensity in a case where the time from blood collection to centrifugation is set to 15 minutes.

[2] = GC/MS of serum sample: time from centrifugation to isolation (Table H); design: key to Rate of increase or decrease / Rate of increase or decrease (first value, increase): detection intensity relative to 1 at 30 min centrifugation-to-isolation; conditions: for Rate of increase or decrease: detection intensity relative to 1 at 30 minutes, after 1 hour; for Increase or decrease: detection intensity, after 1 hour vs 30 minutes
Summary of the method: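 Blood was centrifuged at room temperature, 3500 rpm, 5 min, and the vessel left at room temperature for 30 min, 1 h or 6 h before serum isolation. Serum was methoxymated, trimethylsilylated and analysed by GC/MS with electron ionization in MRM mode; intensities expressed relative to the 30-min condition (=1).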

[3] = GC/MS of serum sample: time from blood collection to centrifugation (Table G); conditions: blood collection to centrifugation; for Increase or decrease: detection intensity; for Rate of increase or decrease: detection intensity relative to 1 at 15 minutes
Summary of the method: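 Blood was held for varying times before centrifugation (room temperature, 3500 rpm, 5 min); serum was frozen, then methoxymated and trimethylsilylated for GC/MS with electron ionization in MRM mode. Values are detection intensities relative to the 15-minute collection-to-centrifugation condition, set as 1.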

[4] = GC/MS of serum sample: number of times of freezing and thawing (Table I); design: key to Rate of increase or decrease / Rate of increase or decrease (first value, increase): detection intensity relative to 2 freeze-thaw cycles = 1; conditions: serum, GC/MS; for Increase or decrease: detection intensity
Summary of the method: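 Serum was isolated after centrifugation at room temperature (3500 rpm, 5 min), frozen, and put through 2, 4, 6 or 10 freeze–thaw cycles. Samples were methoxymated and trimethylsilylated, then run by electron-ionization GC/MS in MRM mode on a BPX5 column (60 to 330 °C). Detection intensity is given relative to the 2-cycle sample, set as 1.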

[5] = GC/MS of blood plasma sample: number of times of freezing and thawing (Table C); conditions: for Increase or decrease: detection intensity; for Rate of increase or decrease (second value, decrease) / Rate of increase or decrease (first value, increase): different from individual to individual, relative to 1 at 2 times; for Rate of increase or decrease (second value, decrease): individuals with decrease; for Rate of increase or decrease (first value, increase): individuals with increase; for Rate of increase or decrease: detection intensity relative to 1 at 2 times
Method: as §1, §2, §3, §4, §5, §6, §7, §8, §9, §10, §11, §12, §13
The rate of increase or decrease in Table C is the value of detection intensity relative to 1 that is the detection intensity in a case where the number of times of freezing and thawing is set to 2 times.

[6] = LC/MS of blood plasma sample: number of times of freezing and thawing (Table F); conditions: for Rate of increase or decrease: detection intensity relative to 1 at 2 times, freezing and thawing 10 times; for Increase or decrease: detection intensity, freezing and thawing 10 times vs 2 times
Method: as §1, §2
(§14) Analysis column: Discovery HS F5-3 (inner diameter of 2.1 mm, length of 150 mm, film thickness of 3 μm) (Sigma-Aldrich)
(§15) Column temperature: 40° C.
(§16) (A) 0.1% formic acid (dissolved in water)
(§17) (B) 0.1% formic acid (dissolved in acetonitrile)
(§18) Flow velocity: 0.25 mL/min
(§19) Ionization method: electrospray
(§20) Temperature: • Desolvation Line (DL) temperature: 250° C. • Heat block temperature: 400° C. • Interface temperature: 300° C.
(§21) Gas flow rate: • Nebulizer gas flow rate: 3.0 L/min • Drying gas flow rate: 10.0 L/min • Heating gas flow rate: 10.0 L/min
as §13
The rate of increase or decrease in Table F is the value of detection intensity relative to 1 that is the detection intensity in a case where the number of times of freezing and thawing is set to 2 times.

[7] = LC/MS of serum sample: number of times of freezing and thawing (Table M); design: key to Rate of increase or decrease: detection intensity relative to 1 at 2 freeze-thaw cycles
Method: After standing, the blood sample was subjected to centrifugation under a condition of room temperature, 3500 rpm, and 5 minutes. […] After centrifugation, the blood-collecting vessel was left to stand at room temperature, and the serum was isolated during this time. Here, in order to investigate how the detection intensity of molecules contained in the sample was affected in cases where the time during which the blood-collecting vessel was left at room temperature was set to 1 hour and 6 hours as compared to that in a case where the time was set to 30 minutes, preparations were performed under the respective conditions of 30 minutes, 1 hour, and 6 hours. The obtained serum sample was frozen and stored. Here, in order to investigate how the detection intensity of molecules contained in the sample was affected in cases where freezing and thawing was performed 4 times, 6 times, and 10 times after freezing as compared to that in a case where freezing and thawing was performed 2 times after freezing, freezing and thawing was performed under the respective conditions of 2, 4, 6, and 10 times.
as §2, §14, §15, §16, §17, §18, §19, §20, §21, §13
The rate of increase or decrease in Table M is the value of detection intensity relative to 1 that is the detection intensity in a case where the number of times of freezing and thawing is set to 2 times.

[8] = freezing and thawing 6 times vs 2 times
[9] = freezing and thawing 10 times vs 2 times

Compound	Rate of increase or decrease ([1]; after 4 hours)	Increase or decrease [1]	Rate of increase or decrease [2]	Increase or decrease [2]	Increase or decrease ([3]; after 4 hours vs 15 minutes)	Increase or decrease [5, 8]	Rate of increase or decrease (second value, decrease) ([5]; freezing and thawing 6 times)	Rate of increase or decrease (first value, increase) ([5]; freezing and thawing 6 times)	Rate of increase or decrease [6]	Increase or decrease [6]	other results
CCCCCCCCCCCCCCCCCCO [Octadecanol]	1.62	Increase	2.08	Increase	Increase	Different from individual	0.68	1.63			Rate of increase or decrease ([4]; detection intensity relative to 1 at 2 times, freezing and thawing 6 times): 1.64; Increase or decrease [4, 8]: Increase
NC(=O)CC[C@H](N)C(=O)O [Glutamine]									1.34	Increase	
CCCCCCCCCCCCCCCCO [1-Hexadecanol (cetanol), 1-Hexadecanol]	0.60	Decrease	1.36	Increase							Rate of increase or decrease ([3]; after 12 hours): 1.38; Increase or decrease ([3]; after 12 hours vs 15 minutes): Increase; Increase or decrease [4, 9]: Different from individual; Rate of increase or decrease (second value, decrease) ([4]; different from individual to individual, individuals with decrease, relative to 1 at 2 times, freezing and thawing 10 times): 0.70; Rate of increase or decrease (first value, increase) ([4]; different from individual to individual, individuals with increase, relative to 1 at 2 times, freezing and thawing 10 times): 1.34; Rate of increase or decrease ([5]; freezing and thawing 10 times): 1.88; Increase or decrease [5, 9]: Increase
Nc1cc[nH]c(=O)n1 [Cytosine]	1.50	Increase				Different from individual	0.62	1.93			
O=C[C@H](O)[C@@H](O)[C@H](O)CO [Xylose]		Different from individual			Increase	Decrease					Rate of increase or decrease (second value, decrease) ([1]; different from individual to individual, individuals with decrease, relative to 1 at 15 minutes, collection to centrifugation, after 4 hours): 0.69; Rate of increase or decrease (first value, increase) ([1]; different from individual to individual, individuals with increase, relative to 1 at 15 minutes, collection to centrifugation, after 4 hours): 1.68; Rate of increase or decrease ([3]; after 4 hours): 1.47; Rate of increase or decrease ([3]; after 8 hours): 0.68; Increase or decrease ([3]; after 8 hours vs 15 minutes): Decrease; Rate of increase or decrease ([5]; freezing and thawing 6 times): 0.68
N[C@@H](CCS)C(=O)O [Homocysteine]									1.37	Increase	Rate of increase or decrease ([7]; 6 times of freezing and thawing, detection intensity relative to 1 at 2 times): 1.30; Number of times when compound is affected ([7]; serum sample, LC/MS, detection intensity changed by 30% or more vs 2 times of freezing and thawing): 6 times; Increase or decrease ([7]; serum sample, LC/MS, detection intensity vs 2 times of freezing and thawing): Decrease
